Measured values: ChEMBL document CHEMBL5316334, “Structure-Based Design of Novel Alkynyl Thio-Benzoxazepinone Receptor-Interacting Protein Kinase-1 Inhibitors: Extending the Chemical Space from the Allosteric to ATP Binding Pockets” (J Med Chem, 2023)
Calls of active or inactive are those of the source. No cut-off for these calls is given here.

What was measured:
[1] = biological target: T1, Receptor-interacting serine/threonine-protein kinase 1 (Homo sapiens, UniProt Q13546); assay: Binding affinity to recombinant RIPK1 (unknown origin) assessed as dissociation constant by kinomescan assay
T1 sequence (Q13546 whole entry): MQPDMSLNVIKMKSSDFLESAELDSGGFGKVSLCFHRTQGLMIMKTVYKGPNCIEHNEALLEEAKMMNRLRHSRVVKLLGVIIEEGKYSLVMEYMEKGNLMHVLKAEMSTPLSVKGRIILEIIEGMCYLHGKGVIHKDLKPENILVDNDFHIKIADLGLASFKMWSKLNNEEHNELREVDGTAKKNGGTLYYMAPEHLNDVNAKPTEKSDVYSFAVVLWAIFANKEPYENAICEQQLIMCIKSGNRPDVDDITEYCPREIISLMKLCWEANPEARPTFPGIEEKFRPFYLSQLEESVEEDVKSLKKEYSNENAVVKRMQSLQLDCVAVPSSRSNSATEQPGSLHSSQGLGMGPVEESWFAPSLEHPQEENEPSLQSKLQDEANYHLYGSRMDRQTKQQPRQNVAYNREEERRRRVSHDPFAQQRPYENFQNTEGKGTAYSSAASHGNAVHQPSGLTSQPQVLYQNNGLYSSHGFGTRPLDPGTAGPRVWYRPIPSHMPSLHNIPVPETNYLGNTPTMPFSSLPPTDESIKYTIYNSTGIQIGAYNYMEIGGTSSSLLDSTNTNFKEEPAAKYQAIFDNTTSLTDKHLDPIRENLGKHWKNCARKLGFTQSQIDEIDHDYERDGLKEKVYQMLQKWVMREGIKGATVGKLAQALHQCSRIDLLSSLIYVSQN

[2] = biological target: Receptor-interacting serine/threonine-protein kinase 3 (Homo sapiens) (UniProt Q9Y572); assay: Inhibition of RIPK3 phosphorylation in TSZ (TNFalpha, Smac mimetic and z-VAD-FMK) induced-human HT-29 cells assessed as decrease in phosphorylated RIPK3 level pretreated with compound followed by TSZ-induction and measured after 6 hrs by immunoblotting analysis; type: cell-based; conditions: dose 1.5-12 nM
Chain of Receptor-interacting serine/threonine-protein kinase 3 (Homo sapiens) (Q9Y572 whole entry, looked up): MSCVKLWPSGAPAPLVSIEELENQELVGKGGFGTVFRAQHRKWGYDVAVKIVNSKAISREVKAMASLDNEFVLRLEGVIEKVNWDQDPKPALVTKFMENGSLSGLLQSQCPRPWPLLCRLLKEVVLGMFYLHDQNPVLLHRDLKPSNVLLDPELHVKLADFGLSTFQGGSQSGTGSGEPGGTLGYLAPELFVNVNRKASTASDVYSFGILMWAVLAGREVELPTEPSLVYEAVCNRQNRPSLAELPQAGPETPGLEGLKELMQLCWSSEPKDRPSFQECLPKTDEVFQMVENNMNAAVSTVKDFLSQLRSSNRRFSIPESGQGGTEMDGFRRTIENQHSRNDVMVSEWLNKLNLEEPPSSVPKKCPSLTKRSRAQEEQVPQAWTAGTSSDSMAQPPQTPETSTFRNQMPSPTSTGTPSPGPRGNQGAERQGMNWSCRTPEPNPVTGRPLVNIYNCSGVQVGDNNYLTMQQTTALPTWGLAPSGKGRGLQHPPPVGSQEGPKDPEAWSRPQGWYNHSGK

HT-29 [3] = assay: Inhibition of RIPK1-RIPK3-MLKL pathway in TSZ induced human HT-29 cells assessed as reduction in necrosome formation at 12 nM measured after 6 hrs by Western blot analysis; type: cell-based
[4] = biological target: T2, Receptor-interacting serine/threonine-protein kinase 1 (Homo sapiens) (UniProt Q13546); assay: Inhibition of RIPK1 phosphorylation in TSZ (TNFalpha, Smac mimetic and z-VAD-FMK) induced-human HT-29 cells assessed as decrease in phosphorylated RIPK1 level pretreated with compound followed by TSZ-induction and measured after 6 hrs by immunoblotting analysis; type: cell-based; conditions: dose 1.5-12 nM
T2 sequence (whole entry): T1 sequence (Q13546 whole entry)

Mus musculus [5] = assay: Anti-necroptic activity against mTNFalpha induced C57BL/6 mouse systemic inflammatory response syndrome model assessed as increase in survival rate 5 mg/kg, IG pretreated with compound for 1 hr followed by mTNFalpha injection and measured after 15 mins; type: functional; conditions: time 75 min, 1.25 h
HT-29 [6] = assay: Cytotoxicity against human HT-29 cells assessed as reduction in cell viability at 100 uM measured for 16 to 24 hrs by Cell-titer-glo assay; type: functional, cell-based; conditions: time 16-24 hrs
HT-29 [7] = assay: Anti-necroptosis activity against human HT-29 cells assessed as inhibition of TSZ-induced necroptosis preincubated for 30 mins followed by compound addition and measured for 16 hrs by Cell-titer-glo assay; type: functional, cell-based
Mus musculus [8] = assay: Anti-necroptic activity against mTNFalpha induced C57BL/6 mouse systemic inflammatory response syndrome model assessed as increase in survival rate 15 mg/kg, IG pretreated with compound for 1 hr followed by mTNFalpha injection and measured after 15 mins; type: functional; conditions: time 75 min, 1.25 h
Mus musculus [9] = assay: Anti-necroptic activity against TNFalpha-induced C57BL/6 mouse serum assessed as reduction in IL-6 level at 5 mg/kg, IG pretreated with compound followed by TNFalpha-stimulation for 4 hrs; type: functional, organism-based
[10] = biological target: T3, Mixed lineage kinase domain-like protein (Homo sapiens) (UniProt Q8NB16); assay: Inhibition of MLKL phosphorylation in TSZ (TNFalpha, Smac mimetic and z-VAD-FMK) induced-human HT-29 cells assessed as decrease in phosphorylated MLKL level pretreated with compound followed by TSZ-induction and measured after 6 hrs by immunoblotting analysis; type: cell-based; conditions: dose 1.5-12 nM
T3 sequence (whole entry): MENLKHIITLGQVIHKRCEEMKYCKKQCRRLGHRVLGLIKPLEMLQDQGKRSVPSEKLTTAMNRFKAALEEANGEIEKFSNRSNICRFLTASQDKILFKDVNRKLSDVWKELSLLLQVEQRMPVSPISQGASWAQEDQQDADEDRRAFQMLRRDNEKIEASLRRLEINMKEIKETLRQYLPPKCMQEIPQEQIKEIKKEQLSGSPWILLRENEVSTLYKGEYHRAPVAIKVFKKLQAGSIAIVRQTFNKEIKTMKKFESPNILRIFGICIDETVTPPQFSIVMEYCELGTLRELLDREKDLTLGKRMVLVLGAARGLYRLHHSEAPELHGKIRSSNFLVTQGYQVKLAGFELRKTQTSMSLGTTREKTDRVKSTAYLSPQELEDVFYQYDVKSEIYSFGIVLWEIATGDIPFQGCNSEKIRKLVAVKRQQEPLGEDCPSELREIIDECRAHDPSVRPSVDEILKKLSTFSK

U-937 = assay: Anti-necroptic activity against human U-937 cells assessed as inhibition of TSZ-induced necroptosis at 100 nM pretreated with compound followed by TSZ induction and measured for 12 hrs by Cell-titer-glo assay; type: functional, cell-based
Mus musculus [11] = assay: Anti-necroptic activity against TNFalpha-induced C57BL/6 mouse systemic inflammatory response syndrome model assessed as protection of body temperature at 20 mg/kg, IG pretreated with compound followed by TNFalpha-stimulation and measured after 2 to 3 hrs by thermometer analysis; type: functional, organism-based; conditions: time 2-3 hrs
Mus musculus [12] = assay: Anti-necroptic activity against mTNFalpha induced C57BL/6 mouse systemic inflammatory response syndrome model assessed as increase in survival rate 10 mg/kg, IG pretreated with compound for 1 hr followed by mTNFalpha injection and measured after 15 mins; type: functional; conditions: time 75 min, 1.25 h
Mus musculus [13] = assay: Anti-necroptic activity against TNFalpha-induced C57BL/6 mouse serum assessed as reduction in IL-1beta level at 5 mg/kg, IG pretreated with compound followed by TNFalpha-stimulation for 4 hrs; type: functional, organism-based
[14] = biological target: Receptor-interacting serine/threonine-protein kinase 3 (Homo sapiens) (UniProt Q9Y572); assay: Inhibition of RIPK3 phosphorylation in TSZ (TNFalpha, Smac mimetic and z-VAD-FMK) induced -human HT-29 cells assessed as decrease in phosphorylated RIPK3 level at 12 nM pretreated with compound followed by TSZ-induction by immunoblotting analysis; type: cell-based; conditions: time 2-6 hrs, TDE = time-dependent effect
[15] = biological target: T2, Receptor-interacting serine/threonine-protein kinase 1 (Homo sapiens); assay: Inhibition of RIPK1 phosphorylation in TSZ (TNFalpha, Smac mimetic and z-VAD-FMK) induced-human HT-29 cells assessed as decrease in phosphorylated RIPK1 level at 12 nM pretreated with compound followed by TSZ-induction by immunoblotting analysis; type: cell-based; conditions: time 6.0 hrs, TDE = time-dependent effect
L929 = assay: Anti-necroptic activity against mouse L929 cells assessed as inhibition of TNFalpha/z-VAD-FMK-induced necroptosis pretreated with compound followed by TNFalpha/z-VAD-FMK-induction and measured after 24 hrs by Cell-titer-glo assay; type: functional, cell-based; conditions: dose 0.02-10 µM
[16] = biological target: Receptor-interacting serine/threonine-protein kinase 3 (Homo sapiens) (UniProt Q9Y572); assay: Inhibition of RIPK3 phosphorylation […] (TNFalpha, Smac mimetic and z-VAD-FMK) induced-human HT-29 cells assessed as decrease in phosphorylated RIPK3 level at 12 nM pretreated with compound followed by TSZ-induction and measured after 6 hrs by immunoblotting analysis; type: cell-based
HT-29 [17] = assay: Cytotoxicity against human HT-29 cells assessed as reduction in cell viability measured for 16 to 24 hrs by Cell-titer-glo assay; type: functional; conditions: time 16-24 hrs
[18] = biological target: T3, Mixed lineage kinase domain-like protein (Homo sapiens); assay: Inhibition of MLKL phosphorylation […] (TNFalpha, Smac mimetic and z-VAD-FMK) induced-human HT-29 cells assessed as decrease in phosphorylated MLKL level at 12 nM pretreated with compound followed by TSZ-induction and measured after 6 hrs by immunoblotting analysis; type: cell-based
[19] = biological target: T3, Mixed lineage kinase domain-like protein (Homo sapiens); assay: Inhibition of MLKL phosphorylation in TSZ (TNFalpha, Smac mimetic and z-VAD-FMK) induced-human HT-29 cells assessed as decrease in phosphorylated MLKL level at 12 nM pretreated with compound followed by TSZ-induction by immunoblotting analysis; type: cell-based; conditions: time 2-6 hrs, TDE = time-dependent effect
HT-29 [20] = assay: Anti-necroptic activity in human HT-29 cells assessed as inhibition of TNFalpha and cycloheximide-induced necroptosis pretreated with compound followed by TNFalpha and cycloheximide-induction and measured after 24 hrs by Cell-titer-glo assay; type: functional, cell-based
[21] = biological target: T2, Receptor-interacting serine/threonine-protein kinase 1 (Homo sapiens); assay: Inhibition of RIPK1 phosphorylation in TSZ (TNFalpha, Smac mimetic and z-VAD-FMK) induced-human HT-29 cells assessed as decrease in phosphorylated RIPK1 level at 12 nM pretreated with compound followed by TSZ-induction and measured after 6 hrs by immunoblotting analysis; type: cell-based
HT-29 [22] = assay: Anti-necroptosis activity against human HT-29 cells assessed as inhibition of TSZ-induced necroptosis pretreated with compound followed by TSZ induction and measured for 12 hrs by Cell-titer-glo assay; type: functional, cell-based; conditions: dose 0.63-100 nM
Mus musculus [23] = assay: Anti-necroptic activity against TNFalpha-induced C57BL/6 mouse serum assessed as reduction in IL-1beta level at 20 mg/kg, IG pretreated with compound followed by TNFalpha-stimulation for 4 hrs; type: functional, organism-based
Mus musculus [24] = assay: Anti-necroptic activity against TNFalpha-induced C57BL/6 mouse serum assessed as reduction in IL-6 level at 20 mg/kg, IG pretreated with compound followed by TNFalpha-stimulation for 4 hrs; type: functional, organism-based
Mus musculus [25] = assay: Anti-necroptic activity against mTNFalpha induced C57BL/6 mouse systemic inflammatory response syndrome model assessed as increase in survival rate 20 mg/kg, IG pretreated with compound for 1 hr followed by mTNFalpha injection and measured after 15 mins; type: functional; conditions: time 75 min, 1.25 h
Mus musculus [26] = assay: Anti-necroptosis activity against TNFalpha-induced C57BL/6 mouse systemic inflammatory response syndrome model assessed as protection of body temperature at 5 to 20 mg/kg, IG pretreated with compound followed by TNFalpha-stimulation and measured after 2 to 3 hrs by thermometer analysis; type: functional, organism-based; conditions: dose 5-20 mg/kg, time 2-3 hrs
Mus musculus [27] = assay: Anti-necroptic activity against mTNFalpha induced C57BL/6 mouse systemic inflammatory response syndrome model assessed as increase in survival rate 20 mg/kg, IG pretreated with compound for 1 hr followed by mTNFalpha injection and measured after 60 mins; type: functional; conditions: time 2 hrs
Mus musculus [28] = assay: Anti-necroptic activity against mTNFalpha induced C57BL/6 mouse systemic inflammatory response syndrome model assessed as increase in survival rate 5 mg/kg, IG pretreated with compound for 1 hr followed by mTNFalpha injection and measured after 60 mins; type: functional; conditions: time 2 hrs

Row | SMILES | Kd [1] | inhibition [2] | inhibition (HT-29 [3]) | inhibition [4] | Activity (Mus musculus [5]) | EC50 (HT-29 [7]) | inhibition [10] | Activity (U-937) | Activity (Mus musculus [11]) | Activity (Mus musculus [12]) | inhibition [14] | inhibition [15] | Activity (L929) | inhibition [16] | CC50 (HT-29 [17]) | inhibition [18] | inhibition [19] | Activity (HT-29 [20]) | inhibition [21] | Activity (Mus musculus [26]) | further results
1 | CN1C(=S)[C@@H](NC(=O)c2n[nH]c(Cc3ccccc3)n2)COc2ccc(C#Cc3cccc(C#N)c3)cc21 | 70 nM | Dose-Dependent Effect | Active | Dose-Dependent Effect | 58% | 3.2 nM | Dose-Dependent Effect | Active | Active | 83% | Tde | Tde | Dose-Dependent Effect | Active | > 100000 nM | Active | Tde | inactive | Active | – | Activity (HT-29 [6]): inactive; Activity (Mus musculus [8]): 100%; Activity (Mus musculus [9]): Active; Activity (Mus musculus [13]): Active
2 | C#Cc1ccc2c(c1)N(C)C(=S)[C@@H](NC(=O)c1n[nH]c(Cc3ccccc3)n1)CO2 | 9.7 nM | Dose-Dependent Effect | Active | Dose-Dependent Effect | 66% | 3.7 nM | Dose-Dependent Effect | Active | Active | 83% | Tde | Tde | Dose-Dependent Effect | Active | > 100000 nM | Active | Tde | inactive | Active | Active | Activity (HT-29 [22]): Dose-Dependent Effect; Activity (Mus musculus [23]): Active; Activity (Mus musculus [24]): Active; Activity (Mus musculus [25]): 100%
3 | CN1C(=O)[C@@H](NC(=O)c2n[nH]c(Cc3ccccc3)n2)COc2ccccc21 [GSK2982772] | – | – | – | – | – | – | – | – | – | – | – | – | – | – | > 100000 nM | – | – | – | – | Active | Activity (Mus musculus [27]): 92%; Activity (Mus musculus [28]): 50%
